Measured values taken from patent publication US20200157563A1, “METHODS OF PRODUCING HUMAN CANCER CELL MODELS AND METHODS OF USE” (The Broad Institute, Inc., priority 2017, published 2020).
Several values for one entry are separate records, joined by “and”; a condition that tells them apart may be missing. Equal values may be shown once.

What follows are substances tested on TERT promoter or exon 1 (assay: Efficiency of tested Cas9 guide sequences (indel formation after RNP delivery)). Details: 3 days post-editing; Cas9 guide targeting TERT promoter or exon 1; replicates 1 and 2 listed separately.
Type: cell-based, human
Protocol: Guide sequences for all genes were determined by empirically testing multiple guides per gene for cutting efficiency (on the extreme end, we tested around 40 Cas9 guide sequences for TERT before settling on one that works).
Applicants also determined guide RNAs for introducing indels at the TERT gene (FIG. 12).
Mutations were first engineered into CDKN2A (‘C’), BRAF (‘B’), and TERT (‘T’) (FIGS. 19A-19G). Lesions in these three genes happen early in melanoma pathogenesis and are exceptionally common, co-occurring events (Akbani et al. Cell 161:1681-1696 (2015)) that have been hypothesized to suffice for malignant transformation (Shain et al. Nat Rev Cancer 16:345-358 (2016); Shain et al. N Engl J Med 373:1926-1936 (2015)). After electroporation of Cas9 ribonucleoprotein complex (RNP) (Rimm et al. Am J Pathol 154:325-329 (1999)) targeting CDKN2A exon 2, the only exon shared by both p16 and p14 protein products, small insertions and deletions (‘indels’) in the gene underwent natural positive selection during cell culture from a 90-95% allele frequency at day three to nearly 100% by day 42 (FIG. 19A). Into these CDKN2A knockout (‘C’) melanocytes, Applicants next introduced the BRAF V600E mutation by co-delivering Cas9 RNP targeting BRAF exon 15 together with a homologous DNA donor encoding the V600E mutation. Recombinant adeno-associated virus (rAAV) was used to deliver the DNA donor (Rimm et al. Am J Pathol 154:325-329 (1999)) in order to increase the low editing efficiency over plasmid or single-stranded oligodeoxynucleotide donors (data not shown; Dever et al. Nature 539:384-389 (2016)). Over roughly 150 days in culture, the BRAF V600E allele increased from a frequency of 6% at day 3 to nearly 100% at day 155 (FIG. 19B). Finally, into these CDKN2A knockout, BRAF V600E mutant (‘CB’) melanocytes, Applicants introduced the −124C>T (also known as C228T) TERT promoter mutation by co-delivery of Cas9 RNP targeting TERT exon 1 together with a homologous DNA donor encoding TERT −124C>T. The −124C>T TERT promoter mutation allele shifted from a stable allele frequency of 3-5% over the first 30 days in culture to roughly 50% by day 75, and stayed at roughly 50% for more than 300 days of continuous culture (FIG. 19C; this 50% frequency is further discussed below). Engineering the TERT promoter mutation was the most technically difficult of these three mutations, and required testing forty different Cas9 guide sequences to identify a potent reagent for making double stranded breaks near the TERT promoter locus (Table 9), possibly due to the high G:C content or closed chromatin state at this locus (Yeh et al. Nat Commun 8:644 (2017)).
Cas9 protein, tracrRNA, and crRNAs (‘guides’, Table 20) were purchased and prepared according to manufacturer's instructions (IDT). To generate RNP complexes, 3-6 μg Cas9 and 45 pmol previously annealed crRNA:trRNA were incubated together for 10 minutes at 25° C. before delivery by electroporation. To target CDKN2A, two crRNAs were mixed at a molar ratio of 1:1 (22.5 pmol crRNA 1: 22.5 pmol crRNA 2) and incubated with 3 μg Cas9.
Electroporation was performed using the Lonza Nucleofector 4D System (program: EO-208) and P3 Primary Cell Nucleofector Kit (Lonza), according to manufacturer's instructions, with optional inclusion of 100 pmol electroporation enhancer (IDT 1075916). After electroporation, cells were incubated with 80 μL of warm media for 10 minutes at 37° C. to enhance recovery and were directly transferred into a tissue culture plate.
DNA was extracted using QuickExtract DNA Extraction Solution following recommended guidelines (Epicentre). Target genomic loci were amplified using gene-specific primers (Table 21) that included universal handles for later attachment of barcoded Illumina adaptors using an additional round of PCR. […]
For “1 (guide TGGGAGGGCCCGGAGGGGGC; chemistry not given here) [compound 1]”, the “% Indel Post-Editing” value was 0.1686% and 0.2057%.
In the case of “2 (guide GTCCCCGGCCCAGCCCCCTC; chemistry not given here) [compound 2]”, the “% Indel Post-Editing” value is reported as 0.29% and 0.6087%.
“3 (guide TCCCCGGCCCAGCCCCCTCC; chemistry not given here) [compound 3]” was tested, and the “% Indel Post-Editing” value was 0.2836% and 0.473%.
“4 (guide GGGGCTGGGAGGGCCCGGAG; chemistry not given here) [compound 4]” was tested, and the “% Indel Post-Editing” value was 0.2787% and 0.05972%.
For “5 (guide GGGCTGGGAGGGCCCGGAGG; chemistry not given here) [compound 5]”, the “% Indel Post-Editing” value was 0.3738% and 0.4065%.
“6 (guide GGGAGGGCCCGGAGGGGGCT; chemistry not given here) [compound 6]” was tested, and the “% Indel Post-Editing” value was 0.3562% and 0.3112%.
“7 (guide GAGGGGCTGGGAGGGCCCGG; chemistry not given here) [compound 7]” was tested, and the “% Indel Post-Editing” value was 0.2257% and 0.1728%.
For “16 (guide GGCCGCGGAAAGGAAGGGGA; chemistry not given here) [compound 16]”, the “% Indel Post-Editing” value was 0.1942% and 0.09556%.
“17 (guide GAAACTCGCGCCGCGAGGAG; chemistry not given here) [compound 17]” was tested, and the “% Indel Post-Editing” value was 0.03391% and 0.163%.
In the case of “18 (guide GCCCCTCCCCTTCCTTTCCG; chemistry not given here) [compound 18]”, the “% Indel Post-Editing” value is reported as 2.299% and 1.045%.
With “19 (guide TGCCTGAAACTCGCGCCGCG; chemistry not given here) [compound 19]” the “% Indel Post-Editing” value was 0.3096% and 0.2587%.
“20 (guide GCGGGGCCGCGGAAAGGAAG; chemistry not given here) [compound 20]” was tested, and the “% Indel Post-Editing” value was 0.1376% and 0.1734%.
For “21 (guide AAACTCGCGCCGCGAGGAGA; chemistry not given here) [compound 21]”, the “% Indel Post-Editing” value was 0.5362% and 0.5957%.
In the case of “22 (guide GGCGGGGCCGCGGAAAGGAA; chemistry not given here) [compound 22]”, the “% Indel Post-Editing” value is reported as 1.212% and 0.3044%.
In the case of “23 (guide GCCGCGGAAAGGAAGGGGAG; chemistry not given here) [compound 23]”, the “% Indel Post-Editing” value is reported as 0.7353% and 0.8087%.
“24 (guide GGGCCGCGGAAAGGAAGGGG; chemistry not given here) [compound 24]” was tested, and the “% Indel Post-Editing” value was 0.19% and 0.2632%.
“25 (guide GGAAAGGAAGGGGAGGGGCT; chemistry not given here) [compound 25]” was tested, and the “% Indel Post-Editing” value was 0.6945% and 1.088%.
“26 (guide GCTGCGCAGCCACTACCGCG; chemistry not given here) [compound 26]” was tested, and the “% Indel Post-Editing” value was 9.609% and 9.23%.
With “27 (guide TGGCCAGCGGCAGCACCTCG; chemistry not given here) [compound 27]” the “% Indel Post-Editing” value was 13.61% and 13.93%.
“28 (guide GGGGAGCGCGCGGCATCGCG; chemistry not given here) [compound 28]” was tested, and the “% Indel Post-Editing” value was 1.175% and 1.846%.
“29 (guide GCTGCGCAGCAGGGAGCGCA; chemistry not given here) [compound 29]” was tested, and the “% Indel Post-Editing” value was 0.5165% and 0.5841%.
For “31 (guide CCACGTTCGTGCGGCGCCTG; chemistry not given here) [compound 31]”, the “% Indel Post-Editing” value was 3.555% and 3.026%.
In the case of “32 (guide TGCCGCTGGCCACGTTCGTG; chemistry not given here) [compound 32]”, the “% Indel Post-Editing” value is reported as 0.1665% and 0.1061%.
For “33 (guide CGCCGCACGAACGTGGCCAG; chemistry not given here) [compound 33]”, the “% Indel Post-Editing” value was 2.925% and 2.489%.
“34 (guide GCGGTAGTGGCTGCGCAGCA; chemistry not given here) [compound 34]” was tested, and the “% Indel Post-Editing” value was 27.04% and 29.27%.
For “35 (guide CTACCGCGAGGTGCTGCCGC; chemistry not given here) [compound 35]”, the “% Indel Post-Editing” value was 1.038% and 1.547%.
With “36 (guide GCGGCAGCACCTCGCGGTAG; chemistry not given here) [compound 36]” the “% Indel Post-Editing” value was 2.113% and 1.684%.
“37 (guide GGGAGCGCACGGCTCGGCAG; chemistry not given here) [compound 37]” was tested, and the “% Indel Post-Editing” value was 5.208% and 5.478%.
For “38 (guide GGAGCGCACGGCTCGGCAGC; chemistry not given here) [compound 38]”, the “% Indel Post-Editing” value was 0.8353% and 1.797%.
In the case of “39 (guide GAGCGCACGGCTCGGCAGCG; chemistry not given here) [compound 39]”, the “% Indel Post-Editing” value is reported as 6.049% and 7.137%.
“40 (guide GCTCGGCAGCGGGGAGCGCG; chemistry not given here) [compound 40]” was tested, and the “% Indel Post-Editing” value was 14.09% and 12.53%.

Same assay, conditions: 5 days post-editing; Cas9 guide targeting TERT promoter or exon 1; replicates 1 and 2 listed separately
For “8 (guide GGGGGCTGGGCCGGGGACCC; chemistry not given here) [compound 8]”, the “% Indel Post-Editing” value was 0.1929% and 0.225%.
“9 (guide GGCTGGGCCGGGGACCCGGG; chemistry not given here) [compound 9]” was tested, and the “% Indel Post-Editing” value was 0.5674% and 0.398%.
With “10 (guide GCTGGGCCGGGGACCCGGGA; chemistry not given here) [compound 10]” the “% Indel Post-Editing” value was 0.3155% and 0.389%.
“11 (guide CTGGGCCGGGGACCCGGGAG; chemistry not given here) [compound 11]” was tested, and the “% Indel Post-Editing” value was 0.2288% and 0.2733%.
With “12 (guide GCCGGGGACCCGGGAGGGGT; chemistry not given here) [compound 12]” the “% Indel Post-Editing” value was 0.1682% and 0.08339%.
“13 (guide CCGGGGACCCGGGAGGGGTC; chemistry not given here) [compound 13]” was tested, and the “% Indel Post-Editing” value was 0.06603% and 0.05525%.
“14 (guide CGCCCCGTCCCGACCCCTCC; chemistry not given here) [compound 14]” was tested, and the “% Indel Post-Editing” value was 0.04851% and 0.09263%.
In the case of “15 (guide GCCCCGTCCCGACCCCTCCC; chemistry not given here) [compound 15]”, the “% Indel Post-Editing” value is reported as 0.375%.
